Assays:
Settings in all cases: exposure time: 72 h
FT3469 [1] = normal neural stem cell line; assay: phenotypic distance (Euclidean, principal components) from DMSO controls (arbitrary units); higher = stronger morphological change
E21 [2] = patient-derived glioblastoma stem cells of mesenchymal subtype; assay: as above
E28 [3] = patient-derived glioblastoma stem cells of classical subtype; assay: as above
E57 [4] = patient-derived glioblastoma stem cells of mesenchymal subtype; assay: as above
E13 [5] = patient-derived glioblastoma stem cells of classical subtype; assay: as above
E31 = patient-derived glioblastoma stem cells of proneural subtype; assay: as above
E34 [6] = patient-derived glioblastoma stem cells of proneural subtype; assay: as above
FT3469 [7] = assay: surviving fraction (nuclei count normalised to DMSO); higher = more cells surviving (less toxic)
E21 [8] = assay: as above
E28 [9] = assay: as above
E57 [10] = assay: as above
E13 [11] = assay: as above
E34 [12] = assay: as above
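Throughout, for phenotypic distance (Euclidean, principal components) from DMSO controls: cell Painting imaging in 384-well plates, CellProfiler features reduced to at least 20 principal components, Euclidean distance versus same-plate DMSO vehicle wells (0.1% v/v), median over six images per well.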
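Throughout, for surviving fraction (nuclei count normalised to DMSO): nuclei counted by high-content imaging of Hoechst-stained cells in laminin-coated 384-well plates, relative to 0.1% DMSO vehicle wells, with staurosporine as cell-death control.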

CCC(C)(C)C(=O)O[C@H]1C[C@@H](C)C=C2C=C[C@H](C)[C@H](CC[C@@H]3C[C@@H](O)CC(=O)O3)[C@H]21 [Simvastatin]
phenotypic distance
Settings | E13 [5] | E21 [2] | E28 [3] | E31 | E34 [6] | E57 [4] | FT3469 [1]
4.1 nM | 0.99 | 1.6 | 1.08 | 0.808 | 1.5 | 1.7 | 1.31
12.3 nM | 0.654 | 1.96 | 1.13 | 0.911 | 1.01 | 0.806 | 1.32
37 nM | 1.13 | 2.52 | 1.19 | 0.566 | 0.739 | 1.4 | 2.33
111.1 nM | 1.23 | 2.77 | 1.42 | 1.39 | 0.945 | 0.799 | 1.86
333.3 nM | 2.27 | 4.05 | 1.61 | 1 | 1.16 | 1.19 | 2.21
1000 nM | 2.58 | 4.54 | 1.56 | 0.996 | 0.529 | 1.46 | 2.66
3000 nM | 4.02 | 5.96 | 3.67 | 3.45 | 1.72 | 3.54 | 3.39

CN[C@@H](C)C(=O)N[C@H](C(=O)N1CCC[C@H]1C(=O)N[C@H]1c2ccccc2C[C@H]1OCC#CC#CCO[C@@H]1Cc2ccccc2[C@@H]1NC(=O)[C@@H]1CCCN1C(=O)[C@@H](NC(=O)[C@H](C)NC)C1CCCCC1)C1CCCCC1 [AZD5582]
Settings | phenotypic distance | surviving fraction
E13 [5], 4.1 nM | 1.42 | –
E13 [5], 12.3 nM | 1.1 | –
E13 [5], 37 nM | 1.5 | –
E13 [5], 111.1 nM | 1.31 | –
E13 [5], 333.3 nM | 1.39 | –
E13 [5], 1000 nM | 1.63 | –
E13 [5], 3000 nM | 1.79 | –
E13 [11], 4.1 nM | – | 0.897
E13 [11], 12.3 nM | – | 0.9073
E13 [11], 37 nM | – | 0.764
E13 [11], 111.1 nM | – | 0.8218
E13 [11], 333.3 nM | – | 0.814
E13 [11], 1000 nM | – | 0.789
E13 [11], 3000 nM | – | 0.755
E21 [2], 4.1 nM | 1.08 | –
E21 [2], 12.3 nM | 1.03 | –
E21 [2], 37 nM | 1.42 | –
E21 [2], 111.1 nM | 1.39 | –
E21 [2], 333.3 nM | 1.47 | –
E21 [2], 1000 nM | 1.24 | –
E21 [2], 3000 nM | 1.92 | –
E21 [8], 4.1 nM | – | 0.73
E21 [8], 12.3 nM | – | 0.739
E21 [8], 37 nM | – | 0.742
E21 [8], 111.1 nM | – | 0.721
E21 [8], 333.3 nM | – | 0.628
E21 [8], 1000 nM | – | 0.633
E21 [8], 3000 nM | – | 0.5049
E28 [3], 4.1 nM | 0.701 | –
E28 [3], 12.3 nM | 0.512 | –
E28 [3], 37 nM | 0.645 | –
E28 [3], 111.1 nM | 0.558 | –
E28 [3], 333.3 nM | 0.744 | –
E28 [3], 1000 nM | 0.712 | –
E28 [3], 3000 nM | 2.48 | –
E28 [9], 4.1 nM | – | 0.975
E28 [9], 12.3 nM | – | 1
E28 [9], 37 nM | – | 0.978
E28 [9], 111.1 nM | – | 1.01
E28 [9], 333.3 nM | – | 1.021
E28 [9], 1000 nM | – | 0.944
E28 [9], 3000 nM | – | 0.802
E34 [6], 4.1 nM | 0.7 | –
E34 [6], 12.3 nM | 0.804 | –
E34 [6], 37 nM | 0.881 | –
E34 [6], 111.1 nM | 1.07 | –
E34 [6], 333.3 nM | 0.735 | –
E34 [6], 1000 nM | 0.779 | –
E34 [6], 3000 nM | 1.26 | –
E34 [12], 4.1 nM | – | 0.925
E34 [12], 12.3 nM | – | 0.838
E34 [12], 37 nM | – | 0.855
E34 [12], 111.1 nM | – | 0.911
E34 [12], 333.3 nM | – | 0.9
E34 [12], 1000 nM | – | 0.847
E34 [12], 3000 nM | – | 0.764
E57 [4], 4.1 nM | 0.861 | –
E57 [4], 12.3 nM | 1.22 | –
E57 [4], 37 nM | 1.41 | –
E57 [4], 111.1 nM | 2.04 | –
E57 [4], 333.3 nM | 2.285 | –
E57 [4], 1000 nM | 2.41 | –
E57 [4], 3000 nM | 2.795 | –
E57 [10], 4.1 nM | – | 0.95
E57 [10], 12.3 nM | – | 0.901
E57 [10], 37 nM | – | 0.824
E57 [10], 111.1 nM | – | 0.756
E57 [10], 333.3 nM | – | 0.756
E57 [10], 1000 nM | – | 0.719
E57 [10], 3000 nM | – | 0.771
FT3469 [1], 4.1 nM | 0.951 | –
FT3469 [1], 12.3 nM | 1.11 | –
FT3469 [1], 37 nM | 1.34 | –
FT3469 [1], 111.1 nM | 0.955 | –
FT3469 [1], 333.3 nM | 0.844 | –
FT3469 [1], 1000 nM | 1.57 | –
FT3469 [1], 3000 nM | 1.61 | –
FT3469 [7], 4.1 nM | – | 1.01
FT3469 [7], 12.3 nM | – | 0.996
FT3469 [7], 37 nM | – | 1.07
FT3469 [7], 111.1 nM | – | 1.03
FT3469 [7], 333.3 nM | – | 1.09
FT3469 [7], 1000 nM | – | 0.918
FT3469 [7], 3000 nM | – | 0.951

From the supplement of paper PMC13207355
